These results are taken from PubChem BioAssay (NCI).

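All cell lines were grown in 96-well plates and treated with compound for 48 hours. TGI: total growth inhibition.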

One experiment relates to SNB-75 CNS. The experiment in a line: NCI anticancer screen, dose series, 48 h.
Regarding `Nc1nc2c(ncn2Cc2ccc(CO)cc2)c(=O)[nH]1`, the TGI is more than 100 µM.
With `O=P(O)(Cc1ccccc1)c1ccccc1-c1ccccc1`, the TGI is more than 100 µM.
The same measure, in the same setting: in the case of `CCO/C=N/NC(=O)CSc1nc2ccc(I)cc2c(=O)n1Cc1ccccc1` it was more than 100 µM.
Same read-out and setting: in the case of `CC12CC(C#N)(C#N)C(C#N)(CO1)C(=N)O2` (stereo not given) it was more than 100 µM; in that of `CC(C)=C1C(=O)C[C@]2(C)C[C@H]3/C(=C(/C)CCC12)CC[C@@]3(C)O` (stereo not given in full), more than 50 µM; in that of `CCCCn1c(C)c2c(c1C)C(=O)N(CC(O)CN1CCc3ccccc3C1)C2=O` (stereo not given), more than 100 µM.
The same measure, in the same setting: in the case of `Cc1cc(C)nc(NS(=O)(=O)c2ccc(NNC(=O)c3cccc4c(=O)c5ccccc5[nH]c34)cc2)n1` it was 77.7 µM; in that of `O=C(NCCCN(CCCCN(CCCNC(=O)C(F)(F)F)CCCc1ccccc1)CCCc1ccccc1)C(F)(F)F`, 2.56 µM.
As for `COc1cc(C2SCC(=O)N2c2ccc(Cl)c(Cl)c2)cc(OC)c1OC` (stereo not given), the TGI is more than 100 µM.
Take `COc1cccc2c1C(=O)c1c(O)c3c(c(O)c1C2=O)C[C@@](O)(C(=O)CO)C[C@@H]3OC1CC(N)C(OC)C(C)O1` (stereo not given in full): the TGI worked out at 0.346 µM.
The same measure, in the same setting: in the case of `C[C@H]1C2Cc3cc(N)ccc3[C@@]1(C)CCN2CCc1ccccc1` it was more than 100 µM; in that of `COC(=O)c1c(O)ccc2c1c1c(n2Cc2ccc(Cl)cc2Cl)C(=O)c2ccccc2C1`, 58.7 µM.
Same read-out and setting: in the case of `NCCCNCCCCNCCCN` it was more than 100 µM; in that of `CCOC(=O)c1cc(C2(O)CCN(CC(C)CC)C2=O)c(-c2cc(C)no2)[nH]1` (stereo not given), more than 100 µM.

Another experiment concerns A549 NSCLC. The experiment in a line: NCI anticancer screen, dose series, 48 h.
With `Nc1nc2c(ncn2Cc2ccc(CO)cc2)c(=O)[nH]1`, the TGI is more than 100 µM.
Same read-out and setting: to `O=P(O)(Cc1ccccc1)c1ccccc1-c1ccccc1` belongs more than 100 µM; to `CCO/C=N/NC(=O)CSc1nc2ccc(I)cc2c(=O)n1Cc1ccccc1`, more than 100 µM.
Same read-out and setting: to `CC12CC(C#N)(C#N)C(C#N)(CO1)C(=N)O2` (stereo not given) belongs more than 100 µM; to `CC(C)=C1C(=O)C[C@]2(C)C[C@H]3/C(=C(/C)CCC12)CC[C@@]3(C)O` (stereo not given in full), more than 50 µM; to `CCCCn1c(C)c2c(c1C)C(=O)N(CC(O)CN1CCc3ccccc3C1)C2=O` (stereo not given), more than 100 µM.
For the compound `Cc1cc(C)nc(NS(=O)(=O)c2ccc(NNC(=O)c3cccc4c(=O)c5ccccc5[nH]c34)cc2)n1`, the TGI was more than 100 µM.
On the same count and under the same terms, to `O=C(NCCCN(CCCCN(CCCNC(=O)C(F)(F)F)CCCc1ccccc1)CCCc1ccccc1)C(F)(F)F` belongs 3.73 µM; to `COc1cc(C2SCC(=O)N2c2ccc(Cl)c(Cl)c2)cc(OC)c1OC` (stereo not given), more than 100 µM.
`COc1cccc2c1C(=O)c1c(O)c3c(c(O)c1C2=O)C[C@@](O)(C(=O)CO)C[C@@H]3OC1CC(N)C(OC)C(C)O1` (stereo not given in full) had a TGI of 18.7 µM.
On the same count and under the same terms, in the case of `C[C@H]1C2Cc3cc(N)ccc3[C@@]1(C)CCN2CCc1ccccc1` it was more than 100 µM; in that of `COC(=O)c1c(O)ccc2c1c1c(n2Cc2ccc(Cl)cc2Cl)C(=O)c2ccccc2C1`, more than 100 µM; in that of `NCCCNCCCCNCCCN`, more than 100 µM.
The compound `CCOC(=O)c1cc(C2(O)CCN(CC(C)CC)C2=O)c(-c2cc(C)no2)[nH]1` (stereo not given) came in with a TGI of more than 100 µM.

For another experiment, the system named is HS 578T breast. The experiment in a line: NCI anticancer screen, dose series, 48 h.
Compound `Nc1nc2c(ncn2Cc2ccc(CO)cc2)c(=O)[nH]1` returned a TGI of more than 100 µM.
On the same count and under the same terms, to `O=P(O)(Cc1ccccc1)c1ccccc1-c1ccccc1` belongs more than 100 µM; to `CCO/C=N/NC(=O)CSc1nc2ccc(I)cc2c(=O)n1Cc1ccccc1`, more than 100 µM.
Still for that read-out and setting: in the case of `CC12CC(C#N)(C#N)C(C#N)(CO1)C(=N)O2` (stereo not given) it was more than 100 µM; in that of `CC(C)=C1C(=O)C[C@]2(C)C[C@H]3/C(=C(/C)CCC12)CC[C@@]3(C)O` (stereo not given in full), more than 50 µM; in that of `CCCCn1c(C)c2c(c1C)C(=O)N(CC(O)CN1CCc3ccccc3C1)C2=O` (stereo not given), more than 100 µM.
The compound `Cc1cc(C)nc(NS(=O)(=O)c2ccc(NNC(=O)c3cccc4c(=O)c5ccccc5[nH]c34)cc2)n1` registered a TGI of more than 100 µM.
Consider `O=C(NCCCN(CCCCN(CCCNC(=O)C(F)(F)F)CCCc1ccccc1)CCCc1ccccc1)C(F)(F)F`, for which the TGI was 4.2 µM.
Same read-out and setting: in the case of `COc1cc(C2SCC(=O)N2c2ccc(Cl)c(Cl)c2)cc(OC)c1OC` (stereo not given) it was more than 100 µM; in that of `COc1cccc2c1C(=O)c1c(O)c3c(c(O)c1C2=O)C[C@@](O)(C(=O)CO)C[C@@H]3OC1CC(N)C(OC)C(C)O1` (stereo not given in full), 1.14 µM; in that of `C[C@H]1C2Cc3cc(N)ccc3[C@@]1(C)CCN2CCc1ccccc1`, more than 100 µM.
Regarding `COC(=O)c1c(O)ccc2c1c1c(n2Cc2ccc(Cl)cc2Cl)C(=O)c2ccccc2C1`, the TGI was more than 100 µM.
With `NCCCNCCCCNCCCN`, the TGI was 98 µM.
On the same count and under the same terms, in the case of `CCOC(=O)c1cc(C2(O)CCN(CC(C)CC)C2=O)c(-c2cc(C)no2)[nH]1` (stereo not given) it was more than 100 µM.

The subject of the next experiment is T-47D breast. In words: NCI anticancer screen, dose series, 48 h.
`Nc1nc2c(ncn2Cc2ccc(CO)cc2)c(=O)[nH]1`: the TGI is more than 100 µM.
Still for that read-out and setting: to `O=P(O)(Cc1ccccc1)c1ccccc1-c1ccccc1` belongs more than 100 µM.
On the same count and under the same terms, to `CCO/C=N/NC(=O)CSc1nc2ccc(I)cc2c(=O)n1Cc1ccccc1` belongs more than 100 µM; to `CC12CC(C#N)(C#N)C(C#N)(CO1)C(=N)O2` (stereo not given), more than 100 µM.
The same measure, in the same setting: to `CC(C)=C1C(=O)C[C@]2(C)C[C@H]3/C(=C(/C)CCC12)CC[C@@]3(C)O` (stereo not given in full) belongs more than 50 µM; to `CCCCn1c(C)c2c(c1C)C(=O)N(CC(O)CN1CCc3ccccc3C1)C2=O` (stereo not given), more than 100 µM.
As for `Cc1cc(C)nc(NS(=O)(=O)c2ccc(NNC(=O)c3cccc4c(=O)c5ccccc5[nH]c34)cc2)n1`, the TGI was more than 100 µM.
Still for that read-out and setting: to `O=C(NCCCN(CCCCN(CCCNC(=O)C(F)(F)F)CCCc1ccccc1)CCCc1ccccc1)C(F)(F)F` belongs 3.84 µM.
The same measure, in the same setting: in the case of `COc1cc(C2SCC(=O)N2c2ccc(Cl)c(Cl)c2)cc(OC)c1OC` (stereo not given) it was more than 63.6 µM; in that of `COc1cccc2c1C(=O)c1c(O)c3c(c(O)c1C2=O)C[C@@](O)(C(=O)CO)C[C@@H]3OC1CC(N)C(OC)C(C)O1` (stereo not given in full), 1.73 µM; in that of `C[C@H]1C2Cc3cc(N)ccc3[C@@]1(C)CCN2CCc1ccccc1`, more than 100 µM.
`COC(=O)c1c(O)ccc2c1c1c(n2Cc2ccc(Cl)cc2Cl)C(=O)c2ccccc2C1` gave a TGI of more than 100 µM.
Still for that read-out and setting: to `NCCCNCCCCNCCCN` belongs 5.91 µM; to `CCOC(=O)c1cc(C2(O)CCN(CC(C)CC)C2=O)c(-c2cc(C)no2)[nH]1` (stereo not given), more than 100 µM.

The next experiment concerns SN12C renal. In words: NCI anticancer screen, dose series, 48 h.
`Nc1nc2c(ncn2Cc2ccc(CO)cc2)c(=O)[nH]1` yielded a TGI of more than 100 µM.
The same measure, in the same setting: in the case of `O=P(O)(Cc1ccccc1)c1ccccc1-c1ccccc1` it was more than 100 µM.
The compound `CCO/C=N/NC(=O)CSc1nc2ccc(I)cc2c(=O)n1Cc1ccccc1` had a TGI of more than 100 µM.
The same measure, in the same setting: to `CC12CC(C#N)(C#N)C(C#N)(CO1)C(=N)O2` (stereo not given) belongs more than 100 µM; to `CC(C)=C1C(=O)C[C@]2(C)C[C@H]3/C(=C(/C)CCC12)CC[C@@]3(C)O` (stereo not given in full), more than 50 µM; to `CCCCn1c(C)c2c(c1C)C(=O)N(CC(O)CN1CCc3ccccc3C1)C2=O` (stereo not given), more than 100 µM.
In turn, `Cc1cc(C)nc(NS(=O)(=O)c2ccc(NNC(=O)c3cccc4c(=O)c5ccccc5[nH]c34)cc2)n1` returned a TGI of more than 100 µM.
The compound `O=C(NCCCN(CCCCN(CCCNC(=O)C(F)(F)F)CCCc1ccccc1)CCCc1ccccc1)C(F)(F)F` had a TGI of 5.8 µM.
Same read-out and setting: in the case of `COc1cc(C2SCC(=O)N2c2ccc(Cl)c(Cl)c2)cc(OC)c1OC` (stereo not given) it was more than 100 µM.
For `COc1cccc2c1C(=O)c1c(O)c3c(c(O)c1C2=O)C[C@@](O)(C(=O)CO)C[C@@H]3OC1CC(N)C(OC)C(C)O1` (stereo not given in full), the TGI was 0.644 µM.
Still for that read-out and setting: in the case of `C[C@H]1C2Cc3cc(N)ccc3[C@@]1(C)CCN2CCc1ccccc1` it was more than 100 µM.
For the compound `COC(=O)c1c(O)ccc2c1c1c(n2Cc2ccc(Cl)cc2Cl)C(=O)c2ccccc2C1`, the TGI turned out to be 55.2 µM.
Same read-out and setting: in the case of `NCCCNCCCCNCCCN` it was 15.4 µM; in that of `CCOC(=O)c1cc(C2(O)CCN(CC(C)CC)C2=O)c(-c2cc(C)no2)[nH]1` (stereo not given), more than 100 µM.
